Assay results published in patent publication US20090149463A1, “Therapeutic agents” (priority 2004, published 2009).
pIC50: −log10 of the molar value.

Columns and labels:
[1] = target: T1, CB1 receptor (Homo sapiens, UniProt P21554); experiment: [35S]-GTPγS binding assay on membranes from cells stably transfected with the CB1 gene, inhibition of CP55940 (EC80); assay type: biochemical; conditions: half maximal inhibition of GTPγS binding in presence of EC80 concentration of agonist CP55940; CB1-transfected cell membranes
T1 construct: expressed in transfected cells
Description: Compounds of the present invention are active against the receptor product of the CB1 gene. The affinity of the compounds of the invention for central cannabinoid receptors is demonstrable in methods described in Devane et al, Molecular Pharmacology, 1988, 34, 605 or those described in WO01/70700 or EP 656354. Alternatively the assay may be performed as follows.
10 μg of membranes prepared from cells stably transfected with the CB1 gene were suspended in 200 μl of 100 mM NaCl, 5 mM MgCl2, 1 mM EDTA, 50 mM HEPES (pH 7.4), 1 mM DTT, 0.1% BSA and 100 μM GDP. To this was added an EC80 concentration of agonist (CP55940), the required concentration of test compound and 0.1 μCi [^35S]-GTPγS. The reaction was allowed to proceed at 30° C. for 45 min. […] Filters were then covered with scintilant and counted for the amount of [^35S]-GTPγS retained by the filter.
Activity is measured in the absence of all ligands (minimum activity) or in the presence of an EC80 concentration of CP55940 (maximum activity). […] At various concentrations of novel ligand, activity is calculated as a percentage of the maximum activity and plotted. The data are fitted using the equation y=A+((B−A)/1+((C/x)UD)) and the IC50 value determined as the concentration required to give half maximal inhibition of GTPγS binding under the conditions used.

T1 sequence (P21554 whole entry): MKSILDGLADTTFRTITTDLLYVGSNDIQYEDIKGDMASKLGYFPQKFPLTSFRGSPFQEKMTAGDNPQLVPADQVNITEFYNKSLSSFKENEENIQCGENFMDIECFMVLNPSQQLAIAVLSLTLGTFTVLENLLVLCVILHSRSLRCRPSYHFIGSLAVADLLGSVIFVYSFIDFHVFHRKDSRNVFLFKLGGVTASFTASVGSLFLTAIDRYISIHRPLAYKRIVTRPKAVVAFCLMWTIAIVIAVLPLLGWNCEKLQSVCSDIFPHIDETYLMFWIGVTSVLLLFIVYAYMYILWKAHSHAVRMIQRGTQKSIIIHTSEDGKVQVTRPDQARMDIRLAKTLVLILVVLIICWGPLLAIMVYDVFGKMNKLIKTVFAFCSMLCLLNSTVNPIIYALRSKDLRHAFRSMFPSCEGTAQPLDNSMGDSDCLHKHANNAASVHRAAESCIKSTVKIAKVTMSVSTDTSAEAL

Row | Compound | pIC50 [1] | melting point
1 | CCCS(=O)(=O)Oc1ccc(-c2c(C)c(C(=O)NC3(C(=O)OC)CCCC3)nn2-c2ccc(Cl)cc2Cl)cc1 [Example 10, Methyl 1-{[(1-(2,4-dichlorophenyl)-4-methyl-5-{4[(propylsulfonyl)oxy]phenyl}-1H-pyrazol-3-yl)carbonyl]amino}cyclopentanecarboxylate] | 8.22 | –
2 | CCCS(=O)(=O)Oc1ccc(-c2c(C)c(C(=O)NN3CCCCC3)nn2-c2ccc(Cl)cc2Cl)cc1 [Example 1, Propane-1-sulfonic acid 4-[2-(2,4-dichlorophenyl)-4-methyl-5-(piperidin-1-ylcarbamoyl)2H-pyrazol-3-yl]-phenyl Ester] | – | 190 °C
3 | CCCOC(=O)Oc1ccc(-c2c(C)c(C(=O)NN3CCCCC3)nn2-c2ccc(Cl)cc2Cl)cc1 [Example 11, Carbonic acid 4-[2-(2,4-dichlorophenyl)-4-methyl-5-(piperidine-1-ylcarbamoyl)-2H-pyrazol-3-yl]-phenyl Ester Propyl Ester] | 8.19 | –
